Experimental data from patent US10076505B2, “Inhalation formulations of Treprostinil” (priority 2003, dated 2018).
Values joined by “and” are separate entries in the source; they are usually repeats but may differ in a detail not shown here. Identical values can stand only once.

Legend:
[1] = tested on: human pulmonary arterial smooth muscle cells; conditions: cited from earlier work
Buerger's disease = test: Case report: subcutaneous Treprostinil in severe Buerger's disease (Example IX); assay type: in vivo, human
Description: At this point, subcutaneous Treprostinil therapy was administered to the patient. Treprostinil was delivered chronically by continuous subcutaneous infusion using a pager-sized ambulatory infusion pump (Medtronic Minimed 407C, Minneapolis, Minn.)). […] The patient is now on a maintenance dose of Treprostinil 12 ng/kg/min from 9 PM-9 AM every seventh day, with no drug for the next 7 days.

[2] = tested on: human alveolar macrophages; conditions: cited from earlier work
critical limb ischemia = test: Open-label study of subcutaneous treprostinil in critical limb ischemia (Example X); assay type: in vivo, human
Description: The planned enrollment was ten patients. All patients were to have Fontaine Stage III-IV or Rutherford Class 4-6 disease and ankle brachial indexes (ABI) from 0-0.55 in the most affected limb or the limb containing the reference ischemic wound for wound healing assessments. […] Any condition or abnormal laboratory value which, based on information in the treprostinil package insert, would constitute an unacceptable risk to the patient's safety, also was an exclusion criterion. Patients could not have been in an investigational trial within the past 30 days or been a non-responder to chronic prostanoid treatment in the past 30 days.
After the completion of baseline assessments, treprostinil therapy was initiated in the clinic. […] Patients and/or a caregiver were trained to administer treprostinil on an outpatient basis using an ambulatory subcutaneous infusion pump (Minimed, Sylmar, Calif., Model 407C). Each patient was to be initiated at a dose of 2.5 ng/kg/min or lower, with the dose titrated based on tolerability. Dose increases were to be 1.25-2.5 ng/kg/min per week. The maximum allowed dose was 15 ng/kg/min and the minimum allowed dose was 0.625 ng/kg/min. The patients were instructed to change the subcutaneous infusion site every three days.
Patients returned to the clinic for assessments at Weeks 2, 6, and 12. Treprostinil treatment was terminated by gradually decreasing the infusion rate (over a period of 1-4 hours, as clinically indicated) after the Week 12 visit assessments were completed.
Safety was assessed in all patients using adverse event (AEs) and physical examination findings. Signs and symptoms of CLI or worsening CLI were not considered to be AEs unless found to be different in causality, intensity, or frequency.
Rest pain was assessed in all patients using a visual analog scale (VAS) for rest pain. The patients were asked to rate their leg pain on a scale of 0-10 with 0 reflecting no pain and 10 reflecting the worst pain. The scale was printed and the patients were asked to place a mark on the number that reflected their pain experience. Patients were asked to rate the worst pain they had experienced since the previous assessment and their average pain during that time frame. Analgesic medication use was assessed by the investigator as unchanged, increased, decreased, or discontinued.
Wound assessments were to be conducted in patients who had at least one ischemic wound at baseline. If the patient had multiple ischemic wounds, then one or two (usually the largest or most severe wounds) were be selected as reference wounds. The selected wound(s) was photographed for documentation. When possible, the outside edge of the wound(s) was traced for area measurement. The tracings were used to calculate wound area by measuring the length and width of the wound. Not all wounds were of the nature that tracings were possible for example, wounds between toes or on the heel with extensive tissue loss were not traced. These wounds were described and photographed.
In patients who had wounds other than those chosen as reference wounds, the overall status (i.e., worse, the same, improved, or healed) of each additional wound also was documented at each study visit. Any new wounds that occurred during the study also were carefully documented.

[3] = individual patients 1-10 (one table line each), versus baseline pain medication, listed as treprostinil

CCCCC[C@H](O)CC[C@@H]1[C@H]2Cc3cccc(OCC(=O)O)c3C[C@H]2C[C@H]1O [UT-15, 9-deoxy-2′,9-alpha-methano-3-oxa-4,5,6-trinor-3,7-(1′,3′-interphenylene)-13,14-dihydro-prostaglandin F1]
proliferation of human pulmonary arterial smooth muscle cells [1]: inhibits proliferation | dose limiting side effects (Buerger's disease; in vivo): diarrhea and jaw pain | Doppler studies (Buerger's disease; one patient): improvement in pulse volume recording wave form | return of ischemic symptoms after attempts to discontinue (Buerger's disease; one patient): ≤ 1 week | maximum tolerated dose (Buerger's disease; one patient, continuous subcutaneous infusion): 12.5 ng/kg/min | ulcer on right middle finger (Buerger's disease; one patient, maintenance 12 ng/kg/min): complete healing | patient-reported comfort and activities of daily living (Buerger's disease; one patient, sc infusion 12.5 ng/kg/min): improved comfort and increased ability to participate in activities of daily living | inflammatory cytokine (tumor necrosis factor-α, interleukin-1β, interleukin-6, GM-CSF) secretion and gene expression [2]: inhibits | wounds during the twelve weeks of drug treatment (critical limb ischemia; Patient 3): remained stable | average rest pain score (critical limb ischemia; Patient 3, 7 at baseline): 4 | worst rest pain score (critical limb ischemia; Patient 3, reduced from 8): 4 | reduction in average rest pain (critical limb ischemia; baseline to week 12): 58% | reduction in the worst rest pain (critical limb ischemia; baseline to week 12): 64% | relation of SAEs to treprostinil (critical limb ischemia; cholecystectomy, worsening congestive heart failure): unlikely to be related | pain relief (critical limb ischemia; conclusion of study): pain relief in all patients | Pain Medication Consumption Week 2 (critical limb ischemia; [3]): No change (5×) and Less (4×) and PERCOCET ® | Pain Medication Consumption Week 6 (critical limb ischemia; [3]): Less (5×) and Increased and No change (2×) and None and Discontinued | Pain Medication Consumption Week 12 (critical limb ischemia; [3]): Darvocet and PERCOCET ® and None (2×) and No change (4×) | patients who discontinued drug prematurely (critical limb ischemia; of ten patients): Two | patients with complete healing of their wounds (critical limb ischemia; of ten patients): Three | patients with diarrhea (critical limb ischemia; of ten patients): one | patients with mild headache (critical limb ischemia; of ten patients): one | patients with mild jaw pain (critical limb ischemia; of ten patients): Two | week of complete wound closure (critical limb ischemia; patient 5, 15 ng/kg/min): 6 week | week of complete resolution of rest pain (critical limb ischemia; patient 7, 7.5 ng/kg/min): 6 week | week of complete wound closure (critical limb ischemia; patient 7, 7.5 ng/kg/min): 12 week | week of complete resolution of ischemic rest pain (critical limb ischemia; patient 10, 15 ng/kg/min): 2 week | week of complete wound closure (critical limb ischemia; patient 10, 15 ng/kg/min): 12 week | new wounds during the trial (critical limb ischemia; ten patients): No patient developed a new wound | serious adverse events (SAEs) (critical limb ischemia; ten patients): two | most common side effect (critical limb ischemia; ten patients, sc infusion up to 15 ng/kg/min): infusion site pain | patients switched to a non-sedating, non-narcotic pain medication (critical limb ischemia; week 12): one | patients with complete pain relief who discontinued all pain medications (critical limb ischemia; week 12): two | patients with increased consumption of pain medication (critical limb ischemia; week 12): one | patients with medication usage unchanged from baseline (critical limb ischemia; week 12): 4 patients | patients with reduced pain medication consumption (critical limb ischemia; week 12): three | average rest pain, mean VAS (0-10) (critical limb ischemia; week 12, baseline mean 7.1): 2.4 | worst rest pain, mean VAS (0-10) (critical limb ischemia; week 12, baseline mean 8.4): 2.5
